Data from PMC5442318, “Hundreds of dual-stage antimalarial molecules discovered by a functional gametocyte screen” (Nature Communications, 2017).
Read-outs that look alike come from different tables or passages of the source.

Assays:
[1] = system: P. falciparum stage V female gametocytes; assay: P. falciparum female gametocyte activation assay (Pf FGAA), 24 h or 48 h preincubation, Pfs25 expression readout; format: cell-based, Plasmodium falciparum NF54; details: mean, read-out: Gametocytes mean Pf FGAA IC50
Procedure, shortened: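 Purified stage V gametocytes from P. falciparum NF54 gametocyte cultures were exposed to compounds for 24 h or 48 h at 37 °C under 3% O2/5% CO2, then activated by temperature drop plus xanthurenic acid. Activated females were stained with Cy3-anti-Pfs25 (0.5 μg ml^−1) for 24 h at 26 °C and counted by high-content imaging; pIC50 by nonlinear regression.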

[2] = system: P. falciparum stages IV–V gametocytes; assay: Gametocytocidal ATP-depletion assay (gametocyte ATP bioluminescence); format: cell-based, Plasmodium falciparum
Procedure, shortened: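 Purified stage IV–V gametocytes (12,500/well) incubated with compound for 48 h at 37 °C under 3% O2/5% CO2. ATP measured by BacTiter-Glo luminescence as a viability surrogate; hits tested at 2 μM single concentration.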

[3] = system: HepG2 cells; assay: HepG2 cytotoxicity assay; format: cell-based
Procedure, shortened: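 Steps: equilibrate plates and detection reagent at room temperature (30 min); dispense CellTiter-Glo; allow 10 min at room temperature; record luminescence.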

[4] = system: P. falciparum asexual blood stages; details: read-out: Pf Asexual blood stages XC50, cited from earlier work
[5] = TCAMS data, ref 1 (Gamo et al., 2010)
[6] = P. falciparum female gametocyte activation assay
[7] = TCAMS asexual blood stage data, ref 1 (Gamo, F. J. et al., Nature 465, 305-310, 2010)
[8] = P. falciparum female gametocytes

Compound | IC50 [1] [nM] | Gametocytes mean ATP inhibition at 2µM (%) [2] [%] | HepG2 cells mean TOX50 ([3]; mean) [µM] | IC50 [4, 5] [nM] | IC50 [1, 6] [nM] | Gametocytes mean ATP inhibition at 2µM [2] [%] | HepG2 cells mean TOX50 ([3]; mean; HepG2 cells) [µM] | IC50 [4, 7] [nM] | IC50 [1, 8] [nM] | HepG2 cells mean TOX50 ([3]; HepG2 cells; mean) [µM]
CN(C)CCCOc1ccc(CN2CCC(c3c[nH]c4ccc(NCC5CCCCC5)cc34)CC2)cc1.O=C(O)C(F)(F)F [TCMDC-140737] | 560 | -13.51 | 5.48 | 680 |  |  |  |  |  | 
CN1CCN(CCNc2c3ccccc3nc3c2ccc2ccccc23)CC1.Cl [TCMDC-137723] | 3490 | 67.71 | 5.07 | 610 |  |  |  |  |  | 
COc1cccc(C23N=C(Nc4nc5ccccc5[nH]4)NC2(c2cccc(OC)c2)NC(Nc2nc4ccccc4[nH]2)=N3)c1 (stereo not shown) [TCMDC-139087] | 90 | 64.05 | 40.74 | 160 |  |  |  |  |  | 
CC1(CCN2CCC(c3c[nH]c4cnccc34)CC2)CCCc2c(Br)cccc2C1=O.Cl (stereo not shown) [TCMDC-141171] |  |  |  |  | 1730 | 10.47 | 5.25 | 190 |  | 
Cl.O=S(=O)(Nc1cc2c(cc1OCCCN1CCCCC1)CCNCC2)c1ccc(-c2ccc(Cl)cc2)cc1 [TCMDC-141753] |  |  |  |  | 2000 | -0.045 | 4.37 | 1010 |  | 
CCCCCCCCN1CCN(CCCCCCNc2c3ccccc3nc3ccccc23)CC1.Cl [TCMDC-138015] | 640 | 57.24 | 3.35 | 160 |  |  |  |  |  | 
Cl.Nc1c(I)cc(C(=O)Nc2ccc3nc4c(c(N)c3c2)CCCC4)cc1I [TCMDC-142289] |  |  |  |  | 780 | 70.94 | 4.52 | 140 |  | 
CCn1c(Sc2ccc([N+](=O)[O-])c(C#N)c2)nnc1-c1cccc(Cl)c1 [TCMDC-135234] |  |  |  |  |  | 46.72 |  | 870 | 1340 | 18.80
COc1ccc(CCNCCCCCCNCCc2ccc(Cl)c3ccccc23)cc1OC.Cl [TCMDC-131270] |  |  |  |  |  | 67.75 |  | 580 | 580 | 2.12
Cc1ccc(Cn2ncc(N3CCCNCC3)c(Cl)c2=O)cc1NC(=O)Nc1ccc(-c2ccccc2)cc1 [TCMDC-141924] |  |  |  |  | 1730 | -4.47 | 7.86 | 630 |  | 
Cl.Nc1c2c(nc3ccc(NC(=O)CCCCCCc4ccccc4)cc13)CCCC2 [TCMDC-139056] | 2380 | -10.66 | 5.42 | 250 |  |  |  |  |  | 
CC(C)(C)c1cc(NC2CC2)nc(-c2ccccn2)n1 [TCMDC-125826] |  |  |  |  |  | 84.45 |  | 720 | 120 | >100
C=C[C@H]1CN(CCCCCCC)CC[C@H]1CCNc1ccnc2ccc(OC)cc12 [TCMDC-139204] | 1800 | 31.13 | 2.24 | 60 |  |  |  |  |  | 
CN1CCCC(CN2CCN(Cc3cccc(-c4ccc(-c5nc6cc(C(F)(F)F)ccc6[nH]5)cc4)c3)CC2)C1.O=C(O)C(F)(F)F (stereo not shown) [TCMDC-133882] |  |  |  |  |  | 1.53 |  | 150 | 1300 | 4.07
COc1cc(NCCCNCc2cn(Cc3cc(Br)cc(Br)c3)c3ccccc23)nc2ccccc12 [TCMDC-140677] | 860 | 11.13 | 3.94 | 190 |  |  |  |  |  | 
CCCC(=O)NC(c1ccc(C(C)C)cc1)c1ccc2cccnc2c1O (stereo not shown) [TCMDC-123884] |  |  |  |  |  | 63.50 |  | 930 | 1540 | >100

Compound | IC50 [1] [nM] | Gametocytes mean ATP inhibition at 2µM (%) [2] [%] | HepG2 cells mean TOX50 ([3]; mean) [µM] | IC50 [4, 5] [nM] | IC50 [1, 6] [nM] | Gametocytes mean ATP inhibition at 2µM [2] [%] | HepG2 cells mean TOX50 ([3]; mean; HepG2 cells) [µM] | IC50 [4, 7] [nM] | IC50 [1, 8] [nM] | HepG2 cells mean TOX50 ([3]; HepG2 cells; mean) [µM]
CN1CCN(c2ccc(Nc3ncc([N+](=O)[O-])c(Nc4ccccc4O)n3)cc2)CC1.O=C(O)C(F)(F)F [TCMDC-141372] |  |  |  |  | 2010 | -21.03 | 1.82 | 720 |  | 
N=C(NCC1CC1c1ccccc1)c1cccc(C(=N)NCC2CC2c2ccccc2)n1 (stereo not shown) [TCMDC-137456] | 1890 | 24.65 | 6.21 | 1760 |  |  |  |  |  | 
Br.CC(C)(Cc1ccc(Cl)cc1)NCCCCCCNCCc1ccc(O)c(O)c1 [TCMDC-131277] |  |  |  |  |  | 53.83 |  | 1200 | 9660 | 10.97
COc1ccc2nc3cc(Cl)ccc3c(N)c2c1.Cl [TCMDC-125835] |  |  |  |  |  | 101.44 |  | 170 | 670 | 1.57
CC(C)(C)c1ccc(CN2CCC(CNC(=O)c3cc(-c4cccc(F)c4)cs3)C2)cc1.O=C(O)C(F)(F)F (stereo not shown) [TCMDC-134444] |  |  |  |  |  | 0.99 |  | 900 | 1320 | 6.61
COc1ccc(CNC2CCN(C)CC2)cc1-c1ccc(S(=O)(=O)NCc2ccccc2)s1.O=C(O)C(F)(F)F [TCMDC-132253] |  |  |  |  |  | -2.80 |  | 230 | 1750 | 5.50
COc1ccc(CNC2Cc3ccccc3C2)cc1-c1ccc(S(=O)(=O)NCCN2CCCC2)s1.O=C(O)C(F)(F)F [TCMDC-132258] |  |  |  |  |  | 59.91 |  | 190 | 1390 | 5.31
Fc1ccc2nc(Nc3nc(-c4ccccn4)cs3)sc2c1 [TCMDC-125540] |  |  |  |  |  | 71.05 |  | 560 | 54.3 | 58.31
CCn1c2ccccc2c2cc(C=NN=c3cc(C)[nH]c4ccccc34)ccc21 [TCMDC-142186] |  |  |  |  | 4150 | 36.64 | 5.82 | 310 |  | 
Cc1sc2ncnc(Sc3nnc(N)s3)c2c1C [TCMDC-124542] |  |  |  |  |  | 30.31 |  | 400 | 770 | 36.31
CC1CCCCN1CCCNc1nc(NCc2ccccc2)c2ccccc2n1 (stereo not shown) [TCMDC-137771] | 7250 | 38.73 | 14.62 | 950 |  |  |  |  |  | 
C=CCC1OC(=O)c2cc(OC)cc(OC)c21 (stereo not shown) [TCMDC-138677] | 360 | 95.50 | 2.29 | 340 |  |  |  |  |  | 
Cc1cccc(Nc2nc(N[C@@H]3CCCNC3)nc3cc[nH]c(=O)c23)c1.O=C(O)C(F)(F)F [TCMDC-134835] |  |  |  |  |  | -27.53 |  | 680 | 1850 | 3.25
COc1ccc(NC(=O)c2ccc(OCCCCCCCOc3ccc(C(=O)Nc4ccc(OC)c(N5CCN(C)CC5)c4)cc3)cc2)cc1N1CCN(C)CC1.O=C(O)C(=O)O [TCMDC-139007] | 1410 | -8.09 | 4.43 | 600 |  |  |  |  |  | 
Oc1ccc2[nH]cc(C3CCN(CCCNCc4ccc(-c5ccccc5)cc4)CC3)c2c1 [TCMDC-139047] | 1440 | -20.32 | 5.62 | 730 |  |  |  |  |  | 
